Entries after “also recorded” stand apart in the source; their conditions may differ. Ends that are not written are not given here.
What was measured:
caspase-3 or caspase-7 = test: CellEvent Caspase-3/7 live cell imaging; type: cell-based, murine; settings: 4T1 cells, 100 µM
Method: Fluorescence labeling of cells was performed by seeding 5.0 × 10^4 4T1 cells in a 35 mm dish on a collagen-coated No. 1.5 coverslip with a 14 mm glass diameter (MatTek, Ashland, MA). After overnight incubation, the cells were washed once with serum-free media and replaced with fresh serum-free media. For cell cytosol labeling, Calcein-AM (Thermo Fisher Scientific, C1430) was added at a final concentration of 5 µg/mL and incubated for 10 min. For mitochondrial membrane labeling, JC-1 (Thermo Fisher Scientific, T3168) was added at a final concentration of 10 µg/mL and incubated for 10 min. To monitor the activity of caspases, CellEvent Caspase-3/7 Red detection reagents (Thermo Fisher Scientific, C10423) were used following the manufacturer’s instructions. For nuclear staining, Hoechst 33342 (Cell Signaling Technology, #4082) was added at a final concentration of 5 µg/mL and incubated for 10 min.
Cells were imaged on either a Zeiss LSM 700 or a 3i spinning disk confocal microscope. Samples were imaged with optimized microscope settings. […]
Image processing was performed using Fiji software. […] For quantification, CellProfiler was used. After cell segmentation based on the nucleus, the intensity of the signal of interest was quantified for each cell. Based on the intensity, each cells were labeled as positive or negative and the fraction of positive cells was calculated.

4T1 murine TNBC cells = test: Real-time cell viability assay (xCELLigence RTCA); type: cell-based; settings: serum-free media, dose-dependent, representative of N = 3
Method: Three thousand cells were seeded in the wells of an xCELLigence RTCA E-plate 16 (Agilent, Santa Clara, CA). After the cells adhered to the plate, the media was replaced with serum-free media, and the cells were treated with CKS1 at the indicated concentrations. The viability of the cells was monitored using the xCELLigence RTCA analyzer (Agilent).

caspase-3 = test: Caspase-3 activity assay in cell lysate; type: cell-based, murine; settings: 4T1 cells, 100 µM, N = 3
Method: Ten thousand 4T1 cells were seeded in 96-well plates and incubated overnight. After CKS1 treatment, the cells were lysed using a lysis buffer (Cell Signaling Technology, #7018). The activity of caspase-3 in the cell lysate was quantified using the caspase-3 activity assay kit (Cell Signaling Technology, #5723) following the manufacturer’s instructions. Briefly, the cell lysate was incubated with a substrate of caspase-3 which was designed to emit fluorescence when cleaved. After incubation, the fluorescence was measured using a plate reader. The protein concentration of the cell lysate was quantified using the DC protein assay kit (Bio-Rad). The caspase-3 activity was divided by the protein concentration to obtain the caspase-3 activity per µg/mL protein in the cell lysate.

[1] = tested on: DC2.4 murine dendritic cells; test: Immunogenicity experiment: cytokine expression in dendritic cells (qPCR); type: cell-based; settings: DC2.4 cells, 2 h with conditioned media from 4T1 cells treated with 100 µM CKS1; N = 4
Method: Two-lakh cells of 4T1 cells were seeded in wells of a 6-well plate. After overnight incubation, the media was replaced with 500 µL of fresh media, and 4T1 cells were treated with either 100 µM CKS1 or water for 2 h. In a separate well, 500 µL of fresh media was added and 100 µM CKS1 was incubated for 2 h. After the 2 h of incubation, all the supernatant was collected, filtered with 0.22 µm syringe filter, and was stored at −80 °C. Five lakh cells of DC2.4 cells were seeded in wells of a 24-well plate. After overnight incubation, the media was replaced with fresh media, supernatant from 4T1 cells treated with water, supernatant from 4T1 cells treated with 100 µM CKS1, or media containing 100 µM CKS1. DC2.4 cells were incubated for 2 h before RNA extraction.
RNA extraction was conducted using QIAwave RNA Mini Kit (Qiagen, Germany, 74535) following the manufacturer’s instructions. […]
Real-time qPCR was conducted using PowerUp SYBR Green Master Mix for qPCR (Thermo Fisher Scientific, A25741) following the manufacturer’s instructions. […] The relative quantity of TNF, IL-6, and IL-12b was normalized to the relative quantity of GAPDH. Finally, the expression level of the cytokines was normalized to the control sample and the fold change was calculated.

CT26 tumors = test: CT26 colon carcinoma model, intratumoral treatment; type: in vivo, Balb/c mice; settings: 40 mg/kg intratumoral daily from day 7, N = 10
Method: The protocols used in this study were approved by the Institutional Care and Use Committee at Johns Hopkins Medical Institutions. Four- to eight-week-old female Balb/c mice were obtained from Charles River (Wilmington, MA). For the 4T1 […] model, 2.5 × 10^4 4T1 cells were injected into the first mammary fat pad of each mouse. For the CT26 colon carcinoma model, 1.0 × 10^6 CT26 cells were injected subcutaneously in the left flank. The sample size was determined so that the final distribution would be close to normal distribution. After 1 week, the animals were randomized into control and CKS1 treatment. During the randomization, the mice were kept in a cage covered with cloth so that the investigator could not see the tumor size. We started daily intratumoral treatment with 40 mg/kg CKS1. For the control group, the matching volume of water was treated intratumorally. The tumor size was measured by using a caliper, and the volume was calculated by using the formula 0.52 × (length) × (width)^2.

Question: For “NGRKACLNPASPIVKKIIEKMLNS-NH2 [CKS1, Chemokinostatin-1]”, which “fraction of cells with activated caspases” value (caspase-3 or caspase-7) is on record?
Answer: increased over time

Question: What about the “time to cell death (reduction in cell index) after treatment” value (4T1 murine TNBC cells) of the same substance?
Answer: ≤ 1 h

Question: And the “caspase-3 activity in cell lysate” value (caspase-3; 30 min)?
Answer: not activated

Question: What about the “caspase-3 activity in cell lysate” value (caspase-3; 4 h) of the same substance?
Answer: activated after 4 h

Question: What about the “expression level of TNF, IL-6, IL-12b” value [1] of the same substance?
Answer: significantly increased the expression level of the cytokines

Question: And the “tumor growth (tumor volume)” value (CT26 tumors)?
Answer: inhibited; also recorded: highly sensitive

Source: article PMC10987543 (Cell Death Discovery, 2024)
